Assay results published in patent publication US9326986B2, “Quinazolinone, quinolone and related analogs as sirtuin modulators” (GLAXOSMITHKLINE LLC, priority 2008, dated 2016).

Target: T1, SIRT1 (Homo sapiens, UniProt Q96EB6)
T1 sequence (Q96EB6 1-747): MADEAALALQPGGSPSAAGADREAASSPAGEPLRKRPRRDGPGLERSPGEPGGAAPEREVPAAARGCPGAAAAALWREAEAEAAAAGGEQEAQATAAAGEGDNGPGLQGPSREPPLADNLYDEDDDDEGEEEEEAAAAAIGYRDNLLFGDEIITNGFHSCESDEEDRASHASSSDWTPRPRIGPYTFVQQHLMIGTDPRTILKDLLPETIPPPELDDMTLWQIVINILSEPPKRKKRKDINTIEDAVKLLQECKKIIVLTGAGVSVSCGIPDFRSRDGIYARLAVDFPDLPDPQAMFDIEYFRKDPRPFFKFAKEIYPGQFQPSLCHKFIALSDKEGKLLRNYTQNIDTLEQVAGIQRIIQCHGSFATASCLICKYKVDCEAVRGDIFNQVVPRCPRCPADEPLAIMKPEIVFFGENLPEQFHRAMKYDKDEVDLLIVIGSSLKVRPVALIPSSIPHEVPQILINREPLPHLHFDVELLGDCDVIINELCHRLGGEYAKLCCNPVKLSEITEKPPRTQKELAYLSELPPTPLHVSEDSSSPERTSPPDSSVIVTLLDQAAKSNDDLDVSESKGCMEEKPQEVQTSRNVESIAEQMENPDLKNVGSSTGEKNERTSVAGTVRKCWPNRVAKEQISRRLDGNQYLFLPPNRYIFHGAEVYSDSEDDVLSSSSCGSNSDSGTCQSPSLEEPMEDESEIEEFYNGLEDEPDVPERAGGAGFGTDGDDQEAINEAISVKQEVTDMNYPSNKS
Experiment: Mass spectrometry based assay to identify modulators of SIRT1 activity (deacetylation of p53-based acetylated peptide)
Format: biochemical
Details: 10 nM SIRT1, 0.5 μM peptide substrate, 120 μM βNAD+, 25 minutes at 25° C.; for EC1.5 μM: SIRT1 activation
Excerpt: A mass spectrometry based assay was used to identify modulators of SIRT1 activity. The mass spectrometry based assay utilizes a peptide having 20 amino acid residues as follows: Ac-EE-K(biotin)-GQSTSSHSK(Ac)NleSTEG-K(5TMR)-EE-NH2 (SEQ ID NO: 1) wherein K(Ac) is an acetylated lysine residue and Nle is a norleucine. The peptide is labeled with the fluorophore 5TMR (excitation 540 nm/emission 580 nm) at the C-terminus. The sequence of the peptide substrate is based on p53 with several modifications. In addition, the methionine residue naturally present in the sequence was replaced with the norleucine because the methionine may be susceptible to oxidation during synthesis and purification.
The mass spectrometry assay is conducted as follows: 0.5 μM peptide substrate and 120 μM βNAD^+ is incubated with 10 nM SIRT1 for 25 minutes at 25° C. in a reaction buffer (50 mM Tris-acetate pH 8, 137 mM NaCl, 2.7 mM KCl, 1 mM MgCl2, 5 mM DTT, 0.05% BSA). Test compounds may be added to the reaction as described above. […] After the 25 minute incubation with SIRT1, 10 μL of 10% formic acid is added to stop the reaction. Reactions are sealed and frozen for later mass spec analysis. Determination of the mass of the substrate peptide allows for precise determination of the degree of acetylation (i.e. starting material) as compared to deacetylated peptide (product).
A control for inhibition of sirtuin activity is conducted by adding 1 μL of 500 mM nicotinamide as a negative control at the start of the reaction (e.g., permits determination of maximum sirtuin inhibition). A control for activation of sirtuin activity is conducted using 10 nM of sirtuin protein, with 1 μL of DMSO in place of compound, to determine the amount of deacetylation of the substrate at a given timepoint within the linear range of the assay. This timepoint is the same as that used for test compounds and, within the linear range, the endpoint represents a change in velocity.
For the above assay, SIRT1 protein was expressed and purified as follows. […] The protein was expressed by induction with 1 mM IPTG as an N-terminal His-tag fusion protein at 18° C. overnight and harvested at 30,000×g. Cells were lysed with lysozyme in lysis buffer (50 mM Tris-HCl, 2 mM Tris[2-carboxyethyl]phosphine (TCEP), 10 μM ZnCl2, 200 mM NaCl) and further treated with sonication for 10 min for complete lysis. The protein was purified over a Ni-NTA column (Amersham) and fractions containing pure protein were pooled, concentrated and run over a sizing column (Sephadex S200 26/60 global). The peak containing soluble protein was collected and run on an Ion-exchange column (MonoQ). Gradient elution (200 mM-500 mM NaCl) yielded pure protein. This protein was concentrated and dialyzed against dialysis buffer (20 mM Tris-HCl, 2 mM TCEP) overnight. The protein was aliquoted and frozen at −80° C. until further use.
Sirtuin modulating compounds that activated SIRT1 were identified using the assay described above and are shown below in Tables 1 and 2. The EC1.5 values for the activating compounds are represented by A (EC1.5<1.0 μM), B (EC1.5 1-25 μM), C (EC1.5>25 μM). The percent maximum fold activation is represented by A (Fold activation>200%) or B (Fold Activation<200%).

Row | % Fold Act. (percent maximum fold activation) | EC1.5 μM | SMILES
1 | A (Fold activation>200%) | B (EC1.5 1-25 μM) | Cn1c(-c2cccc(S(C)(=O)=O)c2)nc2c(C(=O)Nc3ccccn3)cccc2c1=O [Compound 222]
2 | B (Fold Activation<200%) | C (EC1.5>25 μM) | Cn1c(-c2ccncc2)nc2c(C(=O)Nc3ccccn3)cccc2c1=O [Compound 223]
3 | B (Fold Activation<200%) | C (EC1.5>25 μM) | Cn1c(C2CCC2)nc2c(C(=O)Nc3ccccn3)cccc2c1=O [Compound 224]
4 | B (Fold Activation<200%) | C (EC1.5>25 μM) | Cn1c(-c2cscn2)nc2c(C(=O)Nc3ccccn3)cccc2c1=O [Compound 225]
5 | B (Fold Activation<200%) | B (EC1.5 1-25 μM) | Cc1ncsc1-c1nc2c(C(=O)Nc3ccccn3)cccc2c(=O)n1C [Compound 226]
6 | B (Fold Activation<200%) | C (EC1.5>25 μM) | Cn1ccnc1-c1nc2c(C(=O)Nc3ccccn3)cccc2c(=O)n1C [Compound 227]
7 | B (Fold Activation<200%) | B (EC1.5 1-25 μM) | Cn1ccc(-c2nc3c(C(=O)Nc4ccccn4)cccc3c(=O)n2C)n1 [Compound 228]
8 | B (Fold Activation<200%) | B (EC1.5 1-25 μM) | Cn1c(-c2cccc(C(F)(F)F)c2)nc2c(NC(=O)c3cncs3)cccc2c1=O [Compound 229]
9 | A (Fold activation>200%) | A (EC1.5<1.0 μM) | Cc1ncoc1C(=O)Nc1cccc2c(=O)n(C)c(-c3cccc(C(F)(F)F)c3)nc12 [Compound 230]
10 | B (Fold Activation<200%) | C (EC1.5>25 μM) | O=C(Nc1cccc2c(=O)[nH]c(-c3cccc(C(F)(F)F)c3)nc12)c1cnccn1 [Compound 231]

More lines, now with the values behind:

Row | SMILES | % Fold Act. (percent maximum fold activation) | EC1.5 μM
11 | Cn1c(-c2cccc(OC(F)(F)F)c2)nc2c(C(=O)Nc3nccs3)cccc2c1=O [Compound 200] | B (Fold Activation<200%) | B (EC1.5 1-25 μM)
12 | Cn1c(-c2cccc(C(F)(F)F)c2)nc2c(NC(=O)c3cscn3)cccc2c1=O [Compound 201] | B (Fold Activation<200%) | A (EC1.5<1.0 μM)
13 | Cn1c(-c2cccc(C(F)(F)F)c2)nc2c(NC(=O)c3cnccn3)cccc2c1=O [Compound 202] | A (Fold activation>200%) | A (EC1.5<1.0 μM)
14 | Cn1c(-c2cccc(OC(F)(F)F)c2)nc2c(NC(=O)c3cscn3)cccc2c1=O [Compound 203] | B (Fold Activation<200%) | C (EC1.5>25 μM)
15 | Cn1c(-c2cccc(OC(F)(F)F)c2)nc2c(NC(=O)c3cnccn3)cccc2c1=O [Compound 204] | A (Fold activation>200%) | A (EC1.5<1.0 μM)
16 | Cn1c(-c2cccc(C(F)(F)F)c2)nc2c(C(=O)Nc3nccs3)cccc2c1=O [Compound 205] | B (Fold Activation<200%) | B (EC1.5 1-25 μM)
17 | Cn1c(-c2cccc(C(F)(F)F)c2)nc2c(C(=O)Nc3ccccn3)cccc2c1=O [Compound 206] | A (Fold activation>200%) | A (EC1.5<1.0 μM)
18 | Cn1c(-c2cccc(OC(F)(F)F)c2)nc2c(C(=O)Nc3ccccn3)cccc2c1=O [Compound 207] | A (Fold activation>200%) | A (EC1.5<1.0 μM)
19 | Cn1c(-c2ccc(C(F)(F)F)cc2)nc2c(C(=O)Nc3ccccn3)cccc2c1=O [Compound 208] | B (Fold Activation<200%) | C (EC1.5>25 μM)
20 | Cn1c(-c2cccc(N3CCOCC3)c2)nc2c(C(=O)Nc3ccccn3)cccc2c1=O [Compound 209] | A (Fold activation>200%) | B (EC1.5 1-25 μM)
21 | Cn1c(-c2ccccc2)nc2c(C(=O)Nc3ccccn3)cccc2c1=O [Compound 210] | B (Fold Activation<200%) | B (EC1.5 1-25 μM)
22 | Cn1c(-c2ccc(OC(F)(F)F)cc2)nc2c(C(=O)Nc3ccccn3)cccc2c1=O [Compound 211] | B (Fold Activation<200%) | C (EC1.5>25 μM)
23 | Cn1c(-c2ccccc2C(F)(F)F)nc2c(C(=O)Nc3ccccn3)cccc2c1=O [Compound 212, 3-methyl-4-oxo-N-(pyridin-2-yl)-2-(2-(trifluoromethyl)phenyl)-3,4-dihydroquinazoline-8-carboxamide] | A (Fold activation>200%) | B (EC1.5 1-25 μM)
24 | Cn1c(-c2ccccc2OC(F)(F)F)nc2c(C(=O)Nc3ccccn3)cccc2c1=O [Compound 213] | A (Fold activation>200%) | B (EC1.5 1-25 μM)
25 | Cn1c(C2CCCC2)nc2c(C(=O)Nc3ccccn3)cccc2c1=O [Compound 214] | B (Fold Activation<200%) | C (EC1.5>25 μM)
26 | Cn1c(-c2ccc(S(C)(=O)=O)cc2)nc2c(C(=O)Nc3ccccn3)cccc2c1=O [Compound 215] | B (Fold Activation<200%) | C (EC1.5>25 μM)
27 | Cn1c(-c2ccccc2N2CCOCC2)nc2c(C(=O)Nc3ccccn3)cccc2c1=O [Compound 216] | B (Fold Activation<200%) | C (EC1.5>25 μM)
28 | Cn1c(-c2ccc(N3CCOCC3)cc2)nc2c(C(=O)Nc3ccccn3)cccc2c1=O [Compound 217] | A (Fold activation>200%) | B (EC1.5 1-25 μM)
29 | O=C(Nc1ccccn1)c1cccc2c(=O)[nH]c(-c3cccc(C(F)(F)F)c3)nc12 [Compound 218] | A (Fold activation>200%) | A (EC1.5<1.0 μM)
30 | Cn1c(-c2cccc(C(F)(F)F)c2)nc2c(C(=O)Nc3cnccn3)cccc2c1=O [Compound 219] | A (Fold activation>200%) | A (EC1.5<1.0 μM)
31 | COc1ccc(NC(=O)c2cccc3c(=O)n(C)c(-c4cccc(C(F)(F)F)c4)nc23)cc1OC [Compound 220, N-(3,4-dimethoxyphenyl)-3-methyl-4-oxo-2-(3-(trifluoromethyl)phenyl)-3,4-dihydroquinazoline-8-carboxamide] | A (Fold activation>200%) | A (EC1.5<1.0 μM)
32 | Cn1c(-c2ccccc2S(C)(=O)=O)nc2c(C(=O)Nc3ccccn3)cccc2c1=O [Compound 221] | A (Fold activation>200%) | B (EC1.5 1-25 μM)
